The subject of the assay is HEK293E cells. The assay can be described thus: Combination with IDMTs, IgG batch yield by ELISA (Example 6). Type of assay: cell-based, Human. To be noted: VPA 4 mmol/l; no addition = 100%; day 5 after transfection. As to the method:
10 million suspension-adapted HEK293E cells were resuspended in 0.5 ml of Ex-Cell 293 HEK 293 serum-free medium with 4 mmol/l L-glutamine (Cat. No. 14571C-[…]; Lot No. 6A0093; SAFC Biosciences, Lenexa, Kans., USA, “Ex-Cell” medium; note: “Ex-Cell” medium-as used herein-refers to a medium comprising 4 mmol/l L-glutamine) in a 50-ml filter tube each (TPP AG, Trasadingen, Switzerland; Cat. No. 87050, Lot 20050174). In a separate set, 10 million suspension-adapted CHO DG44 cells were resuspended in 0.5 ml of ProCHO5 serum-free medium with 4 mmol/[…] hypoxanthine and 0.194 g/l thymidine (BioWhittaker (Lonza), Belgium; Cat. No. BE12-[…]; Lot No. 7MB0040; “ProCHO5” medium; note: “ProCHO5” medium-as used herein-refers to a medium comprising 4 mmol/[…] hypoxanthine and 0.194 g/l thymidine) in a 50-ml filter tube each (TPP AG, Trasadingen, Switzerland; Cat. No. 87050, Lot 20050174). Then 12.5 μg plasmid DNA at a concentration of 1 μg/μl was added in each tube with the following composition 50% (6.25 μg) p-LC (SEQ ID NO: 1) 50% (6.25 μg) p-HC (SEQ ID NO: 3). Plasmid p-LC comprises the genetic information for the production of the light chain of an IgG antibody, plasmid p-HC comprises the genetic information for the production of the heavy chain of an IgG antibody. The particular vector constructs used in the present invention can also be obtained from the inventors. The inventors can be contacted via e-mail at […]. […] In short, Goat anti-human kappa light chain IgG (Biosource) was used for coating the ELISA-plates, and with AP-conjugated goat anti-human gamma chain IgG (Biosource) the synthesized IgG1 was detected. […] Absorption was measured at 405 nm against 490 nm using a microplate reader (SPECTRAmaxTM340; Molecular Devices, Palo Alto, Calif., USA).
On the technique in general: An ELISA detects its analyte on a solid surface through an enzyme-linked reagent.

As to `CCCC(CCC)C(=O)O` [VPA, valproic acid], the “Fold increase in batch yield over control” value is recorded as 520% ± 30%.

The record behind these values is patent US20090023186A1, “USE OF VALPROIC ACID FOR ENHANCING PRODUCTION OF RECOMBINANT PROTEINS IN MAMMALIAN CELLS” (EXCELLGENE SA, priority 2007, published 2009).
